Laboratory results reported in patent US20130165520A1, “Hybrid Molecule Having Mixed Retinoic Acid Receptor Agonism and Histone Deacetylase Inhibitory Properties” (priority 2010, published 2013).

What was measured:
[1] = test system: NCI-60 panel of human tumor cell lines; experiment: NCI-60 in vitro cancer screen (SRB), whole panel; type: cell-based; settings: all cell lines, read-out: GC-50 values, range over all cell lines
Procedure: Both RARs and HDACs are ubiquitously expressed in cell lines and tissue. It was therefore surmised that hybrid 3 could display cytotoxic activities in a wide variety of cell lines.
The human tumor cell lines of the cancer screening panel are grown in RPMI 1640 medium containing 5% fetal bovine serum and 2 mM L-glutamine. For a typical screening experiment, cells are inoculated into 96 well microtiter plates in 100 μL at plating densities ranging from 5,000 to 40,000 cells/well depending on the doubling time of individual cell lines. After cell inoculation, the microtiter plates are incubated at 37° C., 5% CO2, 95% air and 100% relative humidity for 24 h prior to addition of experimental drugs. […]
Following drug addition, the plates are incubated for an additional 48 h at 37° C., 5% CO2, 95% air, and 100% relative humidity. […] Bound stain is subsequently solubilized with 10 mM trizma base, and the absorbance is read on an automated plate reader at a wavelength of 515 nm. […] Using the absorbance measurements [time zero, (Tz), control growth, (C), and test growth in the presence of drug at the five concentration levels (Ti)], the percentage growth is calculated at each of the drug concentration levels. Percentage growth inhibition is calculated as: [(Ti-Tz)/(C-Tz)]×100 for concentrations for which Ti>/=Tz; and [(Ti-Tz)/Tz]×100 for concentrations for which Ti<Tz. […]

RXF393 = RXF393 (Renal); 48 h
TK-10 = TK-10 (Renal); 48 h
UO-31 = UO-31 (Renal); 48 h
HS578T = HS578T (Breast); 48 h
MOLT-4 = experiment: cells; settings: Homo sapiens, MOLT-4, 48 h
UACC-257 = experiment: cells; settings: Homo sapiens, UACC-257, 48 h
OVCAR-3 = experiment: cells; settings: Homo sapiens, OVCAR-3, 48 h
BT-549 = experiment: cells; settings: Homo sapiens, BT-549, 48 h
T-47D = experiment: cells; settings: Homo sapiens, T47D, 48 h

Question: What does the source list for CC1(C)CCC(C)(C)c2cc(-c3ccc4cc(C(=O)NO)ccc4c3)ccc21 [hybrid 3]?
Answer: IC50 [1]: 302 to 4300 nM; TGI (RXF393): 2.82 µM; TGI (TK-10): 4.97 µM; TGI (UO-31): 1.61 µM; TGI (HS578T): 11.8 µM; GI50 (MOLT-4): 371 nM; CC50 (MOLT-4; read-out: LC50): 7.8 µM; GI50 (UACC-257): 1980 nM; CC50 (UACC-257; read-out: LC50): 29.7 µM; GI50 (OVCAR-3): 603 nM; CC50 (OVCAR-3; read-out: LC50): 4.48 µM; GI50 (BT-549): 1420 nM; CC50 (BT-549; read-out: LC50): 19.7 µM; GI50 (T-47D): 1270 nM; CC50 (T-47D; read-out: LC50): 28 µM
